From patent US8461328B2, “Tricyclic heterocyclic compounds, compositions and methods of use thereof” (Genentech, Inc., priority 2010, dated 2013)

Columns and labels:
Type in all cases: biochemical
TYK2 = molecular target: T1, TYK2 (Homo sapiens, UniProt P29597); assay: TYK2 inhibition (Table 4)
T1 construct: made in house; host or cells: SF9 insect cells (baculovirus)
T1 sequence (P29597 873-1187): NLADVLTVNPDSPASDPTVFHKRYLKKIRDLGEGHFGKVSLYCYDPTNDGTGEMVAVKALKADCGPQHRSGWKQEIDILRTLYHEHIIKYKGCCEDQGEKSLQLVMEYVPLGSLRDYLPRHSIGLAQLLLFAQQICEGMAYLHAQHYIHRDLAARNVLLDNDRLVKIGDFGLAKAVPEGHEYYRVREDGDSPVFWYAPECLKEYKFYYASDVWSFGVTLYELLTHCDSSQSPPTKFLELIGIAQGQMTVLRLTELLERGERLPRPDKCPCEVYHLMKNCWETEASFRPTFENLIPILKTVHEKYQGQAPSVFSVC

JAK2 = molecular target: T2, JAK2 (Homo sapiens, UniProt O60674); assay: JAK2 inhibition (Table 4); conditions: read-out: JAK2 Ki
T2 construct: made in house; host or cells: SF9 insect cells (baculovirus)

JAK3 = molecular target: T3, JAK3 (Homo sapiens, UniProt P52333); assay: JAK3 inhibition (Table 4); conditions: read-out: JAK3 Ki
T3 construct: made in house; host or cells: SF9 insect cells (baculovirus)

JAK1 = molecular target: T4, JAK1 (Homo sapiens, UniProt P23458); assay: JAK1 inhibition (Table 4); conditions: read-out: JAK1 Ki
T4 construct: made in house; host or cells: SF9 insect cells (baculovirus)
T4 sequence (P23458 852-1154): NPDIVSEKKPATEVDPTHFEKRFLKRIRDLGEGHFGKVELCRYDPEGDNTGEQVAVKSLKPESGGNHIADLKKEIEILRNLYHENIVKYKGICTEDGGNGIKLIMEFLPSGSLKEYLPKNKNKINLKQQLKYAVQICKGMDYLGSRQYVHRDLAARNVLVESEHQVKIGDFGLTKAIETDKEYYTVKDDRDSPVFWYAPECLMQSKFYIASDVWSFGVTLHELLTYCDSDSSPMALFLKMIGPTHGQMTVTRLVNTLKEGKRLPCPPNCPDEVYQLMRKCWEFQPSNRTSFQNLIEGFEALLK

T3 sequence (P52333 783-1124): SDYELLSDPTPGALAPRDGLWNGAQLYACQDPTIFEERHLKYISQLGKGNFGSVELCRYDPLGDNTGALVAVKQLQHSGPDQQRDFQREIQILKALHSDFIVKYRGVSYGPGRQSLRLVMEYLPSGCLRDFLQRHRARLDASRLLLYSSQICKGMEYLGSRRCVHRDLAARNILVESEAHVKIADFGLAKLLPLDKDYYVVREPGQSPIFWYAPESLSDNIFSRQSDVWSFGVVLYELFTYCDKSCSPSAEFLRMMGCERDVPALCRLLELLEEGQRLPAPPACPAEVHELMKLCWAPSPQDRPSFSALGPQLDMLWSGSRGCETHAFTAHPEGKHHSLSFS
T2 sequence (O60674 812-1132): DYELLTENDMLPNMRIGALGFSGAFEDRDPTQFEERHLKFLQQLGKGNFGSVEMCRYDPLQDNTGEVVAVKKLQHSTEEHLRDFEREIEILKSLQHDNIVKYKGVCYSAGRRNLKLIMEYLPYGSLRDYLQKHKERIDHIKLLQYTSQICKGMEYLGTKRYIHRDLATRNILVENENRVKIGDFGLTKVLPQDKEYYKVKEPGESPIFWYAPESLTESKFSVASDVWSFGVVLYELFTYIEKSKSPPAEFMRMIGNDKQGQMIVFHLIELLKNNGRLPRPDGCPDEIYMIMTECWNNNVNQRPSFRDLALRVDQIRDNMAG

Structure (SMILES)	Ki (TYK2)	Ki (JAK2)	Ki (JAK3)	Ki (JAK1)
OC(c1nc2cnc3[nH]ccc3c2n1C1CCCCC1)C1CC1 (racemic) [Example 940, (1-Cyclohexyl-1,6-dihydro-1,3,5,6-tetraaza-as-indacen-2-yl)-cyclopropyl-methanol]	8.91 nM	31.3 nM	25.5 nM	0.96 nM
O=C1CCCN1Cc1nc2cnc3[nH]ccc3c2n1C1CCN(Cc2ccccc2)CC1 [Example 24, 1-[1-(1-Benzyl-piperidin-4-yl)-1,6-dihydro-1,2,3,5,6-tetraaza-as-indacen-2-ylmethyl]-pyrrolidin-2-one]	735 nM	68.6 nM	29.2 nM	10.4 nM
N#CCCN1CCC(n2c(CC3CCCOC3)nc3cnc4[nH]ccc4c32)CC1 (racemic) [Example 409, 3-{4-[2-(Tetrahydro-pyran-3-ylmethyl)-6H-1,3,5,6-tetraaza-as-indacen-1-yl]-piperidin-1-yl}-propionitrile]	321 nM	125 nM	126 nM	26.2 nM
CC(C)(C)OC(=O)N1CC(CN[C@H]2CC[C@H](n3cnc4cnc5[nH]ccc5c43)CC2)C1 [Example 557, trans 3-{[4-(6H-1,3,5,6-Tetraaza-as-indacen-1-yl)-cyclohexylamino]-methyl}-azetidine-1-carboxylic acid tert-butyl ester]	443 nM	136 nM	310 nM	21.4 nM
N#CCCN1CCC(n2c(CNC(=O)c3ccccc3F)nc3cnc4[nH]ccc4c32)CC1 [Example 501, N-{1-[1-(2-Cyano-ethyl)-piperidin-4-yl]-1,6-dihydro-1,3,5,6-tetraaza-as-indacen-2-ylmethyl}-2-fluoro-benzamide]	56.4 nM	12 nM	12.2 nM	3.93 nM
OCc1nc2cnc3[nH]ccc3c2n1C1CC2CCC1O2 (single isomer, unassigned) [Example 851, endo-[1-(7-Oxa-bicyclo[2.2.1]hept-2-yl)-1,6-dihydro-1,3,5,6-tetraaza-as-indacen-2-yl]-methanol]	49.9 nM	53.3 nM	24.4 nM	25.9 nM
CC(C)(C)OC(=O)NC1CCCC(n2cnc3cnc4[nH]ccc4c32)C1 (single isomer, unassigned) [Example 476, [3-(6H-1,3,5,6-Tetraaza-as-indacen-1-yl)-cyclohexyl]-carbamic acid tert-butyl ester]	302 nM	29.1 nM	68.4 nM	12.3 nM
C[C@@H](O)c1nc2cnc3[nH]ccc3c2n1C1CCN(Cc2ccn[nH]2)CC1 [Example 896, (R)-1-{1-[1-(2H-Pyrazol-3-ylmethyl)-piperidin-4-yl]-1,6-dihydro-1,3,5,6-tetraaza-as-indacen-2-yl}-ethanol]	56.7 nM	21.4 nM	6.89 nM	1.72 nM
COCCN1CCC[C@@H](n2cnc3cnc4[nH]ccc4c32)C1 [Example 61, 1-[(R)-1-(2-Methoxy-ethyl)-piperidin-3-yl]-1,6-dihydro-1,3,5,6-tetraaza-as-indacene]	1050 nM	253 nM	220 nM	153 nM
O=C(C1CC1F)N1CCC[C@@H](n2cnc3cnc4[nH]ccc4c32)C1 (mixture of isomers) [Example 235, (2-Fluoro-cyclopropyl)-[(R)-3-(6H-1,3,5,6-tetraaza-as-indacen-1-yl)-piperidin-1-yl]-methanone]	17.9 nM	6.56 nM	42.6 nM	4.37 nM
FC(F)(F)c1nc2cnc3[nH]ccc3c2n1C1CCN(Cc2ccccc2)CC1 [Example 167, 1-(1-Benzyl-piperidin-4-yl)-2-trifluoromethyl-1,6-dihydro-1,2,3,5,6-tetraaza-as-indacene]	820 nM	14.1 nM	6.48 nM	10.4 nM
OC[C@H]1CC[C@H](n2cnc3cnc4[nH]ccc4c32)CC1 [Example 631, trans [4-(6H-1,2,3,5,6-Tetraaza-as-indacen-1-yl)-cyclohexyl]-methanol]	6.79 nM	2.57 nM	19.3 nM	0.85 nM
CCN1CCC(n2c(CCNC(=O)OC)nc3cnc4[nH]ccc4c32)C(F)(F)C1 (stereo not drawn) [Example 908, {2-[1-(1-Ethyl-3,3-difluoro-piperidin-4-yl)-1,6-dihydro-1,3,5,6-tetraaza-as-indacen-2-yl]-ethyl}-carbamic acid methyl ester]	282 nM	37.1 nM	16.3 nM	6.07 nM
O=C(CN1CCCC1=O)N1CCC(n2cnc3cnc4[nH]ccc4c32)CC1 [Example 440, 1-{2-Oxo-2-[4-(6H-1,3,5,6-tetraaza-as-indacen-1-yl)-piperidin-1-yl]-ethyl}-pyrrolidin-2-one]	713 nM	115 nM	844 nM	43.2 nM
Cc1noc(CN2CCC(n3c(C(C)O)nc4cnc5[nH]ccc5c43)C(F)C2)n1 (stereo not drawn) [Example 912, 1-{1-[3-Fluoro-1-(3-methyl-[1,2,4]oxadiazol-5-ylmethyl)-piperidin-4-yl]-1,6-dihydro-1,3,5,6-tetraaza-as-indacen-2-yl}-ethanol]	176 nM	42.8 nM	7.83 nM	3.37 nM
Cn1nccc1C(=O)NCc1nc2cnc3[nH]ccc3c2n1C1CCN(CCC#N)CC1 [Example 209, 2-Methyl-2H-pyrazole-3-carboxylic acid {1-[1-(2-cyano-ethyl)-piperidin-4-yl]-1,6-dihydro-1,2,3,5,6-tetraaza-as-indacen-2-ylmethyl}-amide]	66.6 nM	17.6 nM	30.6 nM	2.17 nM
CS(=O)(=O)N1[C@@H]2CC[C@H]1C[C@H](n1cnc3cnc4[nH]ccc4c31)C2 [Example 97, 1-((1S,3S,5R)-8-Methanesulfonyl-8-aza-bicyclo[3.2.1]oct-3-yl)-1,6-dihydro-1,3,5,6-tetraaza-as-indacene]	19.8 nM	2.32 nM	29.6 nM	3.51 nM
CS(=O)(=O)[C@H]1CC[C@H](n2c(CO)nc3cnc4[nH]ccc4c32)CC1 [Example 651, Trans[1-(4-Methanesulfonyl-cyclohexyl)-1,6-dihydro-1,2,3,5,6-tetraaza-as-indacen-2-yl]-methanol]	34.8 nM	42.5 nM	430 nM	9.87 nM
CS(=O)(=O)NCCc1nc2cnc3[nH]ccc3c2n1C1CC2CCC1C2 (stereo not drawn) [Example 694, N-[2-(1-Bicyclo[2.2.1]hept-2-yl-1,6-dihydro-1,2,3,5,6-tetraaza-as-indacen-2-yl)-ethyl]-methanesulfonamide]	7.58 nM	5.63 nM	20.3 nM	0.55 nM
Cc1nc2cnc3[nH]ccc3c2n1C1CCC(NC(=O)N2CC(F)(F)C2)CC1 (stereo not drawn) [Example 748, 3,3-difluoro-azetidine-1-carboxylic acid [4-(2-methyl-6H-1,3,5,6-tetraaza-as-indacen-1-yl)-cyclohexyl]-amide]	444 nM	36.6 nM	150 nM	10.7 nM
Cc1nc2cnc3[nH]ccc3c2n1[C@@H]1CC[C@@H](NC(=O)OC(C)(C)C)C1 [Example 623, [(1R,3R)-3-(2-Methyl-6H-1,2,3,5,6-tetraaza-as-indacen-1-yl)-cyclopentyl]-carbamic acid tert-butyl ester]	118 nM	8.69 nM	42.7 nM	0.98 nM
c1cc2c(ncc3ncn(C4CCN(Cc5cocn5)CC4)c32)[nH]1 [Example 90, 1-(1-Oxazol-4-ylmethyl-piperidin-4-yl)-1,6-dihydro-1,3,5,6-tetraaza-as-indacene]	63.1 nM	8.75 nM	46.9 nM	6.81 nM
Cc1nc2cnc3[nH]ccc3c2n1C1CCN(C(=O)NCCC(F)(F)F)CC1 [Example 765, 4-(2-Methyl-6H-1,3,5,6-tetraaza-as-indacen-1-yl)-piperidine-1-carboxylic acid (3,3,3-trifluoro-propyl)-amide]	2840 nM	872 nM	2210 nM	275 nM
CNC(=O)OC1CCC(n2c(C)nc3cnc4[nH]ccc4c32)CC1 (stereo not drawn) [Example 751, methyl-carbamic acid 4-(2-methyl-6H-1,3,5,6-tetraaza-as-indacen-1-yl)-cyclohexyl ester]	83.9 nM	27.9 nM	79.4 nM	7.83 nM
CCN1CCC(n2c(CCNC(C)=O)nc3cnc4[nH]ccc4c32)C(F)(F)C1 (stereo not drawn) [Example 807, N-{2-[1-(1-Ethyl-3,3-difluoro-piperidin-4-yl)-1,6-dihydro-1,3,5,6-tetraaza-as-indacen-2-yl]-ethyl}-acetamide]	257 nM	34.7 nM	15.9 nM	3.78 nM
O=C(N[C@H]1CC[C@H](n2cnc3cnc4[nH]ccc4c32)CC1)c1ccccc1 [Example 218, N-[4-(6H-1,3,5,6-Tetraaza-as-indacen-1-yl)-cyclohexyl]-benzamide]	33.9 nM	6.07 nM	76.4 nM	6.79 nM
FC1(F)CN(Cc2ccccc2)CCC1n1cnc2cnc3[nH]ccc3c21 (stereo not drawn) [Example 179, 1-(1-Benzyl-3,3-difluoro-piperidin-4-yl)-1,6-dihydro-1,2,3,5,6-tetraaza-as-indacene]	21.6 nM	1.11 nM	13.2 nM	0.58 nM
